Experimental findings from patent US20040132156A1, “Modified hepsin molecules having a substitute activation sequence and uses thereof” (Schering Aktiengesellschaft, priority 2002, published 2004) are described below.

Where two headings read alike, the source gives them in different places.

For the test, the system named is hepsin mRNA in LNCaP cells. The following applies: DHT 10 nM, 24 or 72 hours, Northern blot, compared to GAPDH. The method, then: The prostate cancer cell lines, LNCaP, were obtained from ATCC. The LNCaP cells were treated with dihydrotestosterone (Sigma A 8380) in order to study the response of hepsin mRNA expression to androgens. The confluent cells were cultured in growth medium containing charcoal-stripped FBS for 24 hours. DHT was added to each flask at 10 nM. For control cells, ethanol was added as a vehicle control. The cells were incubated for 24 or 72 hours.
Total RNA was isolated from the cell lines using the RNeasy Maxi Kit (Qiagen), as described in section E above. The Northern gel and blot methods were performed as described in section A above.
The fold-increase of the amount of hepsin mRNA compared to GAPDH was performed according to section C above.

In the case of `C[C@]12CCC(=O)C[C@@H]1CC[C@@H]1[C@@H]2CC[C@]2(C)[C@@H](O)CC[C@@H]12` [DHT, dihydrotestosterone], the “hepsin mRNA transcript levels” value is reported as “increased”. Further, under “listed as dihydrotestosterone”, the “hepsin mRNA transcript levels” value is given as “Up-regulation”.
